Series [1] deals with L1210 cells. The series is described as follows: Phototoxicity in L1210 cells, MTT viability assay. The format is cell-based. The settings on record: phototoxicity, L1210 cells. As for the experimental part: The above described compounds were tested in vitro for phototoxicity and dark toxicity in L1210 cells as described in the Example section below. Twenty four compounds which were tested for cytotoxicity are listed in Table 3 below along with BPD-MA.
(§1) Phototoxicity was determined with L11210 cells in the presence of the compound as follows: the L1210 cells were exposed to varying concentrations of the compounds in 96-well microtiter plates for one hour at 37° C. and 5% CO2. No fetal calf serum (FCS) was added at this time. The plate was then illuminated for one hour after which a 10% aqueous FCS solution was added to the wells. The plates were then returned to the CO2 incubator overnight. After incubation, the cells were assayed for viability using the MTT assay (Mossman, T. J. Immunol. Meth. 1983, 65, 55).

Series [2] has as its system L1210 cells. As to the kind of experiment: Dark cytotoxicity in L1210 cells (plates wrapped in aluminum foil). The settings on record: for LD20dark: L1210 cells, absence of light. The format is cell-based. As for the experimental part:
The above compounds were also tested for dark toxicity. Dark toxicity refers to the toxicity of the drug to cells in the absence of light. This toxicity is, therefore, not due to singlet oxygen mediated cellular damage.
as §1
Dark cytotoxicity was determined while the plates were wrapped in aluminum foil while under the light source.

The mark [3] stands for this setting: 1 h exposure without FCS, 1 h illumination, MTT.

Where “and” joins values, the source holds several entries; their conditions need not be identical. Identical values can stand only once.

Take `OC1c2nc(c(-c3ccccc3)c3ccc([nH]3)c(-c3ccccc3)c3nc(c(-c4ccccc4)c4ccc([nH]4)c2-c2ccccc2)C=C3)C1O` (stereo not shown) [Compound 3, H2TPC(OH)2]: the LD50 in series [1] (setting [3]) was 2.78 M and 1800 ng/mL. Also, the LD50 in series [1] (Table 4) is 1800 ng/mL. In series [2], this compound came in with an LD50dark of 19000 ng/mL and an LD20dark of 7000 ng/mL.
Take `O=[N+]([O-])c1cccc(-c2c3nc(c(-c4cccc([N+](=O)[O-])c4)c4ccc([nH]4)c(-c4cccc([N+](=O)[O-])c4)c4nc(c(-c5cccc([N+](=O)[O-])c5)c5ccc2[nH]5)C(O)C4O)C=C3)c1` (stereo not shown) [Compound 4, T(m-NO2)PC(OH)2]: the LD50 in series [1] (setting [3]) is 5.43 M and 4500 ng/mL. The LD50 in series [1] (Table 4) was 4500 ng/mL. In series [2], this compound registered an LD50dark of 15000 ng/mL and an LD20dark of 4500 ng/mL.
Consider `OC1c2nc(c(-c3ccc(Br)cc3)c3ccc([nH]3)c(-c3ccc(Br)cc3)c3nc(c(-c4ccc(Br)cc4)c4ccc([nH]4)c2-c2ccc(Br)cc2)C=C3)C1O` (stereo not shown) [Compound 5, T(p-Br)PC(OH)2], for which the LD50 is 6.22 M and 6000 ng/mL in series [1] (setting [3]); 6000 ng/mL in series [1] (Table 4). The LD50dark in series [2] is on record as 8000 ng/mL. The compound also came in with an LD20dark in series [2] of 1900 ng/mL.
For `OC1c2nc(c(-c3cccc(Br)c3)c3ccc([nH]3)c(-c3cccc(Br)c3)c3nc(c(-c4cccc(Br)c4)c4ccc([nH]4)c2-c2cccc(Br)c2)C=C3)C1O` (stereo not shown) [Compound 6, T(m-Br)PC(OH)2], the LD50 in series [1] (setting [3]) is 4.15 M and 4000 ng/mL. The LD50 in series [1] (Table 4) came to 4000 ng/mL. Further, in series [2], the LD50dark stood at 4000 ng/mL and the LD20dark was found to be 1500 ng/mL.
With `OC1c2nc(c(-c3cccc(F)c3)c3ccc([nH]3)c(-c3cccc(F)c3)c3nc(c(-c4cccc(F)c4)c4ccc([nH]4)c2-c2cccc(F)c2)C=C3)C1O` (stereo not shown) [Compound 7, T(m-F)PC(OH)2], the LD50 in series [1] (setting [3]) is 6.87 M and 5000 ng/mL; in series [1] (Table 4), 5000 ng/mL. Further, the LD50dark in series [2] turned out to be 6000 ng/mL. This compound returned an LD20dark in series [2] of 1500 ng/mL.
`OC1c2nc(c(-c3ccccc3F)c3ccc([nH]3)c(-c3ccccc3F)c3nc(c(-c4ccccc4F)c4ccc([nH]4)c2-c2ccccc2F)C=C3)C1O` (stereo not shown) [Compound 8, T(o-F)PC(OH)2]: in series [1] (setting [3]), the LD50 is 4.17 M and 3000 ng/mL. In series [1] (Table 4), the LD50 amounted to 3000 ng/mL. In series [2], this compound returned an LD50dark of 15000 ng/mL and an LD20dark of 5000 ng/mL.
In the case of `OC1c2nc(c(-c3c(F)c(F)c(F)c(F)c3F)c3ccc([nH]3)c(-c3c(F)c(F)c(F)c(F)c3F)c3nc(c(-c4c(F)c(F)c(F)c(F)c4F)c4ccc([nH]4)c2-c2c(F)c(F)c(F)c(F)c2F)C=C3)C1O` (stereo not shown) [Compound 9, TF5PC(OH)2], in series [1] (setting [3]), the LD50 was 1.79 M and 1800 ng/mL. In addition, the LD50 in series [1] (Table 4) was found to be 100 ng/mL. In series [2], this compound gave an LD50dark of 12000 ng/mL and an LD20dark of 5000 ng/mL.
`Oc1ccc(-c2c3nc(c(-c4ccc(O)cc4)c4ccc([nH]4)c(-c4ccc(O)cc4)c4nc(c(-c5ccc(O)cc5)c5ccc2[nH]5)C(O)C4O)C=C3)cc1` (stereo not shown) [Compound 10, T(p-OH)PC(OH)2]: in series [1] (setting [3]), the LD50 was 4.92 M and 3500 ng/mL. The compound further returned an LD50 in series [1] (Table 4) of 3500 ng/mL. Moreover, in series [2], the LD50dark was determined as 15000 ng/mL and the LD20dark is given as 5000 ng/mL.
Regarding `Oc1cccc(-c2c3nc(c(-c4cccc(O)c4)c4ccc([nH]4)c(-c4cccc(O)c4)c4nc(c(-c5cccc(O)c5)c5ccc2[nH]5)C(O)C4O)C=C3)c1` (stereo not shown) [Compound 11, T(m-OH)PC(OH)2], the LD50 in series [1] (setting [3]) was 0.0211 M and 15 ng/mL; in series [1] (Table 4), 15 ng/mL. The same compound displayed an LD50dark in series [2] of 12500 ng/mL. In addition, in series [2], the LD20dark was determined as 10000 ng/mL.
As for `COc1cccc(-c2c3nc(c(-c4cccc(OC)c4)c4ccc([nH]4)c(-c4cccc(OC)c4)c4nc(c(-c5cccc(OC)c5)c5ccc2[nH]5)C(O)C4O)C=C3)c1` (stereo not shown) [Compound 15, T(m-OCH3)PC(OH)2], the LD50 in series [1] (setting [3]) is 1.3 M and 1000 ng/mL.

For the origin of these results see patent US7022843B1, “β,β′-dihydroxy meso-substituted chlorins, isobacteriochlorins, and bacteriochlorins” (priority 1999, dated 2006).
